Measurements: article PMC4118827, “Mapping the conformational space accessible to catechol-O-methyltransferase” (Acta Crystallographica Section D: Biological Crystallography, 2014)
Numbering of substitutions follows the chain as printed.

Key:
[1] = biological target: T1, rat COMT (rCOMT), catechol-O-methyltransferase (Rattus norvegicus, UniProt P22734); assay: co-crystal structures ([…]), semi-holo, and ([…]), with tolcapone and Mg2+; type: binding
T1 construct: soluble N-terminally truncated form, lacks the N-terminal 43 residues
T1 sequence (P22734 44-264): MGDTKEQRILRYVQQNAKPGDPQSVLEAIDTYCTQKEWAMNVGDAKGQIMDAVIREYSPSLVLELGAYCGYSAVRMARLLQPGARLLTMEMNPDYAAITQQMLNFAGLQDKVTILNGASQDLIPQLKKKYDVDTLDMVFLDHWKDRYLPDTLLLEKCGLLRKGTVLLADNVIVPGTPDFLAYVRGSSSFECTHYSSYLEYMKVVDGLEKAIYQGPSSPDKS

[2] = biological target: T2, humanized rat COMT (hrCOMT), catechol-O-methyltransferase (Rattus norvegicus, UniProt P22734, M134I/Y138C); assay: co-crystal structure ([…]) at […] Å; IC50 from activity-based high-throughput screen; type: biochemical
T2 sequence (P22734 44-264 M134I/Y138C): T1 sequence (P22734 44-264) with M91I, Y95C

IC50 [2] [µM] | SMILES | co-crystal structures (7), semi-holo, and (8), with tolcapone and Mg2+ [1]
– | Nc1ncnc2c1ncn2[C@@H]1O[C@H](C[C@@H](N)CC[C@H](N)C(=O)O)[C@@H](O)[C@H]1O [sinefungin] | Co-crystal structure with the SAM analogue sinefungin. Semi-holo form.
4.4 | N=C(N)c1ccc(NC(=O)Nc2cccc(CN)c2)cc1 [4-[3-(3-aminomethylphenyl)-ureido]-benzamidine] | –
